Results on 16 compounds are retold here after patent US20260297080A1, “BICYCLIC COMPOUNDS AS CDK INHIBITORS” (BeOne Medicines I GmbH, priority 2022, published 2026).

For one experiment, the target named is CDK2/Cyclin E1 (Homo sapiens, UniProt P24941). The experiment can be described thus: CDK2/Cyclin E1 Biochemical Assay (TR-FRET), 0.060 mM ATP. As to conditions: 0.15 μM Rb (Ser780)-biotin substrate, pH7.0, 60 min preincubation, 120 min reaction, room temperature. An outline of the steps:
(§1)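 Percent inhibition was derived from the 665 nm/620 nm TR-FRET ratio after a 120-minute room-temperature reaction on 0.15 μM Rb (Ser780)-biotin, preceded by 60-minute enzyme–compound preincubation. IC50 came from four-parameter logistic fitting.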
A general note: Time-resolved FRET reads energy transfer from a long-lived donor to a nearby acceptor.

The next experiment concerns the target CDK1/Cyclin B1 (Homo sapiens, UniProt P06493). The experiment can be described thus: CDK1/Cyclin B1 Biochemical Assay (TR-FRET), 0.015 mM ATP. The note with it: 0.15 μM Rb (Ser780)-biotin substrate, pH7.0, 60 min preincubation, 120 min reaction, room temperature. An outline of the steps: as §1

Chain of CDK1/Cyclin B1 (P06493 whole entry): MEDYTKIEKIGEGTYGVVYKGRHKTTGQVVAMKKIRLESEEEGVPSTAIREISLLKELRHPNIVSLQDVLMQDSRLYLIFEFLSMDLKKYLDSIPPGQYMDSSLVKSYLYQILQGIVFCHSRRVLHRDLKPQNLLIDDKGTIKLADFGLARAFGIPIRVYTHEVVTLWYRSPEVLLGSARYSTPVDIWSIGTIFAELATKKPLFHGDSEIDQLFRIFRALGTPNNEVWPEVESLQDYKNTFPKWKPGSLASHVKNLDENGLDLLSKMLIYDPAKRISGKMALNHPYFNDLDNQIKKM
Chain of CDK1/Cyclin B1 (P14635 whole entry partner): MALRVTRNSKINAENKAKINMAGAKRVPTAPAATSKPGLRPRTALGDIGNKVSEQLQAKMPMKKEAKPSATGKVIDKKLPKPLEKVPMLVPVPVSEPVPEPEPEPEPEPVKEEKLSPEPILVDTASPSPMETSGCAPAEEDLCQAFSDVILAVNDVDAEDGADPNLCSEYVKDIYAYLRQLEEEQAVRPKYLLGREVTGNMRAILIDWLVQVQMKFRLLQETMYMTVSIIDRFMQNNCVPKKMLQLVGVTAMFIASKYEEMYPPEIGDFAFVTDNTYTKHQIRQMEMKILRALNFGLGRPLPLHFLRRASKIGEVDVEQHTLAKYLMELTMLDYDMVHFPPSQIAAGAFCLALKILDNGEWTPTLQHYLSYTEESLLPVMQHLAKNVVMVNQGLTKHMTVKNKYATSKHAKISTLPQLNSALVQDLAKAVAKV

For the compound `CC(C)NC(=O)O[C@H]1CC[C@@H](c2cc(Nc3ccc4c(c3F)CS(=O)(=O)N4CC(F)(F)F)n[nH]2)C1` (single isomer, unassigned) [Example 263b, cis-3-(3-((4-fluoro-2,2-dioxido-1-(2,2,2-trifluoroethyl)-1,3-dihydrobenzo[c]isothiazol-5-yl)amino)-1H-pyrazol-5-yl)cyclopentyl isopropylcarbamate], the IC50 turned out to be 5.1 nM at CDK2/Cyclin E1 and 91 nM against CDK1/Cyclin B1.

Consider `CC1(NC(=O)O[C@H]2CC[C@@H](c3cc(Nc4ccc5c(c4F)CS(=O)(=O)N5CC(F)(F)F)n[nH]3)C2)CC1` (single isomer, unassigned) [Example 264a, cis-3-(3-((4-fluoro-2,2-dioxido-1-(2,2,2-trifluoroethyl)-1,3-dihydrobenzo[c]isothiazol-5-yl)amino)-1H-pyrazol-5-yl)cyclopentyl(1-methylcyclopropyl)carbamate], for which the IC50 on CDK2/Cyclin E1 was 1.3 nM; against CDK1/Cyclin B1, 65 nM.

In the case of `CC1(NC(=O)O[C@H]2CC[C@@H](c3cc(Nc4ccc5c(c4F)CS(=O)(=O)N5CC(F)(F)F)n[nH]3)C2)CC1` (single isomer, unassigned) [Example 264b, cis-3-(3-((4-fluoro-2,2-dioxido-1-(2,2,2-trifluoroethyl)-1,3-dihydrobenzo[c]isothiazol-5-yl)amino)-1H-pyrazol-5-yl)cyclopentyl(1-methylcyclopropyl)carbamate], the figures for the IC50 against CDK2/Cyclin E1 and against CDK1/Cyclin B1 were 1.1 nM and 22 nM, respectively.

`CC[C@H](C)NC(=O)O[C@H]1CC[C@@H](c2cc(Nc3ccc4c(c3F)CS(=O)(=O)N4CC(F)(F)F)n[nH]2)C1` (single isomer, unassigned) [Example 265a]: the IC50 on CDK2/Cyclin E1 was found to be 1.6 nM; on CDK1/Cyclin B1, 41 nM.

With `CC[C@H](C)NC(=O)O[C@H]1CC[C@@H](c2cc(Nc3ccc4c(c3F)CS(=O)(=O)N4CC(F)(F)F)n[nH]2)C1` (single isomer, unassigned) [Example 265b], the IC50 against CDK2/Cyclin E1 amounted to 2.4 nM; on CDK1/Cyclin B1, 26 nM.

Regarding `[2H]C([2H])([2H])N1c2ccc(Nc3cc([C@@H]4CC[C@H](OC(=O)NC(C)C)C4)[nH]n3)c(F)c2CS1(=O)=O` (single isomer, unassigned) [Example 267a, cis-3-(3-((4-fluoro-1-(methyl-d3)-2,2-dioxido-1,3-dihydrobenzo[c]isothiazol-5-yl)amino)-1H-pyrazol-5-yl)cyclopentyl isopropylcarbamate], the half-maximal inhibitory concentration (IC50) was 7.8 nM against CDK2/Cyclin E1 and 142 nM on CDK1/Cyclin B1.

For `[2H]C([2H])([2H])N1c2ccc(Nc3cc([C@@H]4CC[C@H](OC(=O)NC(C)C)C4)[nH]n3)c(F)c2CS1(=O)=O` (single isomer, unassigned) [Example 267b, cis-3-(3-((4-fluoro-1-(methyl-d3)-2,2-dioxido-1,3-dihydrobenzo[c]isothiazol-5-yl)amino)-1H-pyrazol-5-yl)cyclopentyl isopropylcarbamate], the IC50 amounted to 6.4 nM against CDK2/Cyclin E1 and 73 nM on CDK1/Cyclin B1.

For `[2H]C([2H])([2H])N1c2ccc(Nc3cc([C@@H]4CC[C@H](OC(=O)NCCC)C4)[nH]n3)c(F)c2CS1(=O)=O` (single isomer, unassigned) [Example 268a, cis-3-(3-((4-fluoro-1-(methyl-d3)-2,2-dioxido-1,3-dihydrobenzo[c]isothiazol-5-yl)amino)-1H-pyrazol-5-yl)cyclopentyl propylcarbamate], the IC50 against CDK2/Cyclin E1 is 14 nM; at CDK1/Cyclin B1, 285 nM.

Take `[2H]C([2H])([2H])N1c2ccc(Nc3cc([C@@H]4CC[C@H](OC(=O)NCCC)C4)[nH]n3)c(F)c2CS1(=O)=O` (single isomer, unassigned) [Example 268b, cis-3-(3-((4-fluoro-1-(methyl-d3)-2,2-dioxido-1,3-dihydrobenzo[c]isothiazol-5-yl)amino)-1H-pyrazol-5-yl)cyclopentyl propylcarbamate]: the IC50 is 4 nM against CDK2/Cyclin E1 and 75 nM against CDK1/Cyclin B1.

For the compound `CC(C)NC(=O)O[C@H]1CC[C@@H](c2cc(Nc3ccc4c(c3F)CS(=O)(=O)N4CCO)n[nH]2)C1` (single isomer, unassigned) [Example 271a, cis-3-(3-((4-fluoro-1-(2-hydroxyethyl)-2,2-dioxido-1,3-dihydrobenzo[c]isothiazol-5-yl)amino)-1H-pyrazol-5-yl)cyclopentyl isopropylcarbamate], the IC50 on CDK2/Cyclin E1 came out at 3.2 nM; at CDK1/Cyclin B1 it was 172 nM.

Regarding `CC(C)NC(=O)O[C@H]1CC[C@@H](c2cc(Nc3ccc4c(c3F)CS(=O)(=O)N4CCO)n[nH]2)C1` (single isomer, unassigned) [Example 271b, cis-3-(3-((4-fluoro-1-(2-hydroxyethyl)-2,2-dioxido-1,3-dihydrobenzo[c]isothiazol-5-yl)amino)-1H-pyrazol-5-yl)cyclopentyl isopropylcarbamate], the IC50 against CDK2/Cyclin E1 stood at 1.8 nM; at CDK1/Cyclin B1 it was 49 nM.

As to `CCCNC(=O)O[C@H]1CC[C@@H](c2cc(Nc3ccc4c(c3F)CS(=O)(=O)N4CCO)n[nH]2)C1` (single isomer, unassigned) [Example 272a, cis-3-(3-((4-fluoro-1-(2-hydroxyethyl)-2,2-dioxido-1,3-dihydrobenzo[c]isothiazol-5-yl)amino)-1H-pyrazol-5-yl)cyclopentyl propylcarbamate], the values for the IC50 against CDK2/Cyclin E1 and against CDK1/Cyclin B1 were 15.5 nM and 146 nM, respectively.

As to `CCCNC(=O)O[C@H]1CC[C@@H](c2cc(Nc3ccc4c(c3F)CS(=O)(=O)N4CCO)n[nH]2)C1` (single isomer, unassigned) [Example 272b, cis-3-(3-((4-fluoro-1-(2-hydroxyethyl)-2,2-dioxido-1,3-dihydrobenzo[c]isothiazol-5-yl)amino)-1H-pyrazol-5-yl)cyclopentyl propylcarbamate], the results for the IC50 on CDK2/Cyclin E1 and against CDK1/Cyclin B1 were 3 nM and 59 nM, respectively.

`CC(C)NC(=O)O[C@H]1CC[C@@H](c2cc(Nc3ccc4c(c3F)CS(=O)(=O)N4C3CC3)n[nH]2)C1` (single isomer, unassigned) [Example 275a, cis-3-(3-((1-cyclopropyl-4-fluoro-2,2-dioxido-1,3-dihydrobenzo[c]isothiazol-5-yl)amino)-1H-pyrazol-5-yl)cyclopentyl isopropylcarbamate]: the IC50 against CDK2/Cyclin E1 is 8.4 nM; against CDK1/Cyclin B1, 398 nM.

For the compound `CC(C)NC(=O)O[C@H]1CC[C@@H](c2cc(Nc3ccc4c(c3F)CS(=O)(=O)N4C3CC3)n[nH]2)C1` (single isomer, unassigned) [Example 275b, cis-3-(3-((1-cyclopropyl-4-fluoro-2,2-dioxido-1,3-dihydrobenzo[c]isothiazol-5-yl)amino)-1H-pyrazol-5-yl)cyclopentyl isopropylcarbamate], the IC50 was found to be 3.1 nM on CDK2/Cyclin E1 and 160 nM against CDK1/Cyclin B1.

For the compound `[2H]C([2H])([2H])N1c2c(F)cc(Nc3cc([C@@H]4CC[C@H](OC(=O)NC(C)C)C4)[nH]n3)cc2CS1(=O)=O` (single isomer, unassigned) [Example 289a, cis-3-(3-((7-fluoro-1-(methyl-d3)-2,2-dioxido-1,3-dihydrobenzo[c]isothiazol-5-yl)amino)-1H-pyrazol-5-yl)cyclopentyl isopropylcarbamate], the IC50 came out at 10 nM against CDK2/Cyclin E1 and 196 nM against CDK1/Cyclin B1.

In general, IC50 refers to the concentration that inhibits the measured activity by half.
